# Measurements taken from patent EP2934524B1, “PENETHAMATE VETERINARY INJECTABLE FORMULATIONS” (Alleva Animal Health Limited, priority 2012, dated 2014).
# Tests used:
# [1] = following injection, equivalent dose; cited from earlier work
# [2] = Estimated solubility and discolouration of penethamate in organic solvents; format: physicochemical; details: Solketal, propylene glycol, glycerol formal and DGMEE
# Text: Solubility of penethamate was estimated at the concentrations of 0.2% w/w and 1.0% w/w, in the following solvents: glycerine, Solketal, polyethylene glycol 200 (PEG 200), diethylene glycol butyl ether (DGBE), propylene glycol (PG), glycofural, diethylene glycol monomethyl ether (DGME), diethylene glycol methyl ethyl ether (DGMEE), dimethyl isosorbide (DMI), 2-pyrrolidone (2-pyrol), N-methyl-2-pyrrolidone (NMP), dimethyl acetamide (DMA), glycerol formal (GF), benzyl alcohol (BA), ethyl lactate and dimethyl sulfoxide (DMSO).
smiles,measurement,setting,value
"CCN(CC)CCOC(=O)[C@@H]1N2C(=O)[C@@H](NC(=O)Cc3ccccc3)[C@H]2SC1(C)C [penethamate hydriodide, 2-(diethylamino)ethyl (2S,5R,6R)-3,3-dimethyl-7-oxo-6-[(2-phenylacetyl)amino]-4-thia-1-azabicyclo[3.2.0] heptane-2-carboxylate]",levels of penicillin in the milk relative to other benzyl-penicillin preparations,[1],about 10 times higher
same,discolouration in organic solvent,[2]; 0.2% w/w and 1.0% w/w in glycerine,no discolouration
same,solubility in organic solvent,[2]; estimated at 0.2% w/w and 1.0% w/w in glycerine,minimal solubility
